Assay results reported in US12441725B2, “ISO-citrate dehydrogenase (IDH) inhibitor” (ZHEJIANG METON PHARMACEUTICAL CO., LTD, priority 2019, dated 2025).

What was measured:
IDH1 R132H = molecular target: T1, IDH1 R132H (Homo sapiens, UniProt O75874, R132H); experiment: Biochemical assay for IDH inhibition (NADPH fluorescence), mutant IDH1 R132H; conditions: 50 nM IDH1-R132H, 1 hour pre-incubation, in triplet
T1 construct: 6xHis
In short: (§1)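 Mutant enzyme (25 nM R132C or 50 nM R132H) was preincubated 1 h at room temperature with compound in pH 7.5 Tris buffer containing 1.33 mM α-KG, and the reaction was then started with NADPH (80 μM solution). NADPH consumption was followed by fluorescence (Ex 340/Em 460 nm) for 15 min. IC50 was derived from background-corrected linear rates relative to vehicle, run in triplicate.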

[1] = molecular target: T2, IDH (endogenous IDH1 R132C) in HT1080 cell (Homo sapiens, UniProt O75874, R132C); experiment: Cell-based assay for IDH inhibition (decrease of D-2-HG) in HT1080 cells; conditions: human fibrosarcoma cell line HT1080, 16 hours treatment, D-2-HG by LC-MS, in triplet
T2 construct: which harbor endogenous heterozygous IDH1 R132C and R132H mutation respectively and accumulate D-2-HG
In short: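 HT1080 cells with endogenous IDH1 R132C, grown in DMEM/10% FBS, treated with compound at several concentrations for 16 h. Metabolites extracted in cold 40% methanol/40% acetonitrile and D-2-HG measured by HILIC LC-MS/MS, normalized to glutamate. IC50 from D-2-HG relative to DMSO controls; run in triplicate.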

IDH1 R132C = molecular target: T3, IDH1 R132C (Homo sapiens, UniProt O75874, R132C); experiment: Biochemical assay for IDH inhibition (NADPH fluorescence), mutant IDH1 R132C; conditions: 25 nM IDH1-R132C, 1 hour pre-incubation, in triplet
T3 construct: 6xHis
In short: as §1

T1 sequence (O75874 whole entry R132H): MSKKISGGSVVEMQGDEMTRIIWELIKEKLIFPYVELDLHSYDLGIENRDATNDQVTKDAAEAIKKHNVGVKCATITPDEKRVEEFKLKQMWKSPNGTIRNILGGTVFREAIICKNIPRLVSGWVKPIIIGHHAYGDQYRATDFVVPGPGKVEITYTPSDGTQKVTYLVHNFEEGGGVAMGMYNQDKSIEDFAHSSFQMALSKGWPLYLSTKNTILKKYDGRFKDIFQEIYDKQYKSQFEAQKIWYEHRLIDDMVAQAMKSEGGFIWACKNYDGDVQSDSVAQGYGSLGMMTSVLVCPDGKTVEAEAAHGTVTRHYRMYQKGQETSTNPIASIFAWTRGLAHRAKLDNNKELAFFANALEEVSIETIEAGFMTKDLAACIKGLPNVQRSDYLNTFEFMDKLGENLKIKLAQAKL
T3 sequence (O75874 whole entry R132C): as the sequence (O75874 whole entry R132H) above, with H132C counted along it
T2 sequence (O75874 2-414 R132C): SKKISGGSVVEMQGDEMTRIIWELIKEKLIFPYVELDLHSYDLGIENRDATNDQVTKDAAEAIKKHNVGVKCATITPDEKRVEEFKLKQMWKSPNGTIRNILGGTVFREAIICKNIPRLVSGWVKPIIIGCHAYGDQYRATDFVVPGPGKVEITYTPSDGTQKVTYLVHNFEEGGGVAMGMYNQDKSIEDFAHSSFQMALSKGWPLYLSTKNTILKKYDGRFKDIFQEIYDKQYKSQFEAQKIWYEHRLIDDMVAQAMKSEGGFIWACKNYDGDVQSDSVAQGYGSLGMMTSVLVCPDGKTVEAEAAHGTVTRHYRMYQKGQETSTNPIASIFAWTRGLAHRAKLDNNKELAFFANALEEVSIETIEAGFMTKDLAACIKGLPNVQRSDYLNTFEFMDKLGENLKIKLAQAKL

IC50 (IDH1 R132H) [nM]	IC50 [1] [nM]	IC50 (IDH1 R132C) [nM]	Compound
100 to 500	500 to 1000	100 to 500	C[C@H](Nc1nccc2c1CN(CC(F)F)C2=O)c1ccc(-c2ccnc(C(C)(C)C)c2)c(F)c1 [Compound 37, (S)-4-((1-(4-(2-(tert-butyl)pyridin-4-yl)-3-fluorophenyl)ethyl)amino)-2-(2,2-difluoroethyl)-2,3-dihydro-1H-pyrrolo[3,4-c]pyridin-1-one]
< 100	500 to 1000	100 to 500	C[C@H](Nc1nccc2c1CN(C(CF)CF)C2=O)c1ccc(-c2ccnc(C(C)(C)C)c2)c(F)c1 [Compound 38, (S)-4-((1-(4-(2-(tert-butyl)pyridin-4-yl)-3-fluorophenyl)ethyl)amino)-2-(1,3-difluoropropan-2-yl)-2,3-dihydro-1H-pyrrolo[3,4-c]pyridin-1-one]
100 to 500	> 1000	> 1000	C[C@H](Nc1nccc2c1CN(CC(F)CF)C2=O)c1ccc(-c2ccnc(C(C)(C)C)c2)c(F)c1 (stereo partly drawn) [Compound 39, 4-(((S)-1-(4-(2-(tert-butyl)pyridin-4-yl)-3-fluorophenyl)ethyl)amino)-2-(2,3-difluoropropyl)-2,3-dihydro-1H-pyrrolo[3,4-c]pyridin-1-one]
< 100	100 to 500	100 to 500	C[C@H](Nc1nccc2c1CN([C@H](C)CF)C2=O)c1ccc(-c2ccnc(C(C)(C)C)c2)c(F)c1 [Compound 40, 4-(((S)-1-(4-(2-(tert-butyl)pyridin-4-yl)-3-fluorophenyl)ethyl)amino)-2-((R)-1-fluoropropan-2-yl)-2,3-dihydro-1H-pyrrolo[3,4-c]pyridin-1-one]
100 to 500	> 1000	500 to 1000	CCN1Cc2c(N[C@@H](C)c3ccc(-c4ccc(F)c(C)c4)c(F)c3)ncc(F)c2C1=O [Compound 41, (S)-4-((1-(2,4′-difluoro-3′-methyl-[1,1′-biphenyl]-4-yl)ethyl)amino)-2-ethyl-7-fluoro-2,3-dihydro-1H-pyrrolo[3,4-c]pyridin-1-one]
< 100	100 to 500	100 to 500	CCN1Cc2c(ccnc2N[C@@H](C)c2ccc(-c3ccnc(C(C)(C)C)c3)c(F)c2F)C1=O [Compound 42, (S)-4-((1-(4-(2-(tert-butyl)pyridin-4-yl)-2,3-difluorophenyl)ethyl)amino)-2-ethyl-2,3-dihydro-1H-pyrrolo[3,4-c]pyridin-1-one]
< 100	100 to 500	< 100	CCN1Cc2c(ccnc2N[C@@H](C)c2cc(F)c(-c3ccnc(C(C)(C)C)c3)c(F)c2)C1=O [Compound 43, (S)-4-((1-(4-(2-(tert-butyl)pyridin-4-yl)-3,5-difluorophenyl)ethyl)amino)-2-ethyl-2,3-dihydro-1H-pyrrolo[3,4-c]pyridin-1-one]
> 1000	500 to 1000	> 1000	CCN1Cc2c(ccnc2N[C@@H](C)c2cnc(-c3cc(C(C)(C)C)ccn3)c(F)c2)C1=O [Compound 44, (S)-4-((1-(4′-(tert-butyl)-3-fluoro-[2,2′-bipyridin]-5-yl)ethyl)amino)-2-ethyl-2,3-dihydro-1H-pyrrolo[3,4-c]pyridin-1-one]
> 1000	> 1000	> 1000	CCN1Cc2c(ccnc2N[C@@H](C)c2cc(C)c(-c3ccnc(C(F)(F)F)c3)cn2)C1=O [Compound 45, (S)-2-ethyl-4-((1-(4-methyl-2′-(trifluoromethyl)-[3,4′-bipyridin]-6-yl)ethyl)amino)-2,3-dihydro-1H-pyrrolo[3,4-c]pyridin-1-one]
> 1000	> 1000	> 1000	CCN1Cc2c(ccnc2N[C@@H](C)c2ccc(-c3ccnc(C(C)(C)C)c3)cn2)C1=O [Compound 46, (S)-4-((1-(2′-(tert-butyl)-[3,4′-bipyridin]-6-yl)ethyl)amino)-2-ethyl-2,3-dihydro-1H-pyrrolo[3,4-c]pyridin-1-one]
> 1000	> 1000	> 1000	CCN1Cc2c(ccnc2N[C@@H](C)c2ncc(-c3ccccc3)cn2)C1=O [Compound 47, (S)-2-ethyl-4-((1-(5-phenylpyrimidin-2-yl)ethyl)amino)-2,3-dihydro-1H-pyrrolo[3,4-c]pyridin-1-one]
> 1000	> 1000	> 1000	CCN1Cc2c(ccnc2N[C@@H](C)c2ncc(-c3ccc(F)c(C)c3)cn2)C1=O [Compound 48, (S)-2-ethyl-4-((1-(5-(4-fluoro-3-methylphenyl)pyrimidin-2-yl)ethyl)amino)-2,3-dihydro-1H-pyrrolo[3,4-c]pyridin-1-one]
> 1000	> 1000	> 1000	CCN1Cc2c(ccnc2N[C@@H](C)c2ncc(-c3cccc(C)c3F)cn2)C1=O [Compound 49, (S)-2-ethyl-4-((1-(5-(2-fluoro-3-methylphenyl)pyrimidin-2-yl)ethyl)amino)-2,3-dihydro-1H-pyrrolo[3,4-c]pyridin-1-one]
> 1000	> 1000	> 1000	CCN1Cc2c(ccnc2N[C@@H](C)c2ncc(-c3ccc(OC)cc3)cn2)C1=O [Compound 50, (S)-2-ethyl-4-((1-(5-(4-methoxyphenyl)pyrimidin-2-yl)ethyl)amino)-2,3-dihydro-1H-pyrrolo[3,4-c]pyridin-1-one]
100 to 500	> 1000	100 to 500	CCN1Cc2c(ccnc2N[C@@H](C)c2ccc(Cc3ccc(F)c(C)c3)c(F)c2)C1=O [Compound 51, (S)-2-ethyl-4-((1-(3-fluoro-4-(4-fluoro-3-methylbenzyl)phenyl)ethyl)amino)-2,3-dihydro-1H-pyrrolo[3,4-c]pyridin-1-one]
100 to 500	> 1000	100 to 500	CCN1Cc2c(ccnc2N[C@@H](C)c2ccc(Cc3ccccc3)c(F)c2)C1=O [Compound 52, (S)-4-((1-(4-benzyl-3-fluorophenyl)ethyl)amino)-2-ethyl-2,3-dihydro-1H-pyrrolo[3,4-c]pyridin-1-one]
> 1000	> 1000	> 1000	CCN1Cc2c(ccnc2N[C@@H](C)c2ncc(Cc3ccc(F)c(C)c3)cn2)C1=O [Compound 54, (S)-2-ethyl-4-((1-(5-(4-fluoro-3-methylbenzyl)pyrimidin-2-yl)ethyl)amino)-2,3-dihydro-1H-pyrrolo[3,4-c]pyridin-1-one]
> 1000	> 1000	> 1000	CCN1Cc2c(ccnc2N[C@@H](C)c2ccc(CN3CCC(F)(F)CC3)c(F)c2)C1=O [Compound 55, (S)-4-((1-(4-((4,4-difluoropiperidin-1-yl)methyl)-3-fluorophenyl)ethyl)amino)-2-ethyl-2,3-dihydro-1H-pyrrolo[3,4-c]pyridin-1-one]
> 1000	> 1000	> 1000	CCN1Cc2c(ccnc2N[C@@H](C)c2cn(-c3ccnc(C(C)(C)C)c3)cn2)C1=O [Compound 56, (S)-4-((1-(1-(2-(tert-butyl)pyridin-4-yl)-1H-imidazol-4-yl)ethyl)amino)-2-ethyl-2,3-dihydro-1H-pyrrolo[3,4-c]pyridin-1-one]
> 1000	> 1000	> 1000	CCN1Cc2c(N[C@@H](C)c3cn(-c4ccc(F)cc4)cn3)ncc(F)c2C1=O [Compound 57, (S)-2-ethyl-7-fluoro-4-((1-(1-(4-fluorophenyl)-1H-imidazol-4-yl)ethyl)amino)-2,3-dihydro-1H-pyrrolo[3,4-c]pyridin-1-one]
> 1000	> 1000	> 1000	CCN1Cc2c(ccnc2N[C@H](C)c2cn(-c3ccc(Cl)cc3)cn2)C1=O [Compound 58, (R)-4-((1-(1-(4-chlorophenyl)-1H-imidazol-4-yl)ethyl)amino)-2-ethyl-2,3-dihydro-1H-pyrrolo[3,4-c]pyridin-1-one]
> 1000	> 1000	> 1000	CCN1Cc2c(ccnc2N[C@@H](C)c2ccc(-n3ccc(C)n3)c(F)c2)C1=O [Compound 59, (S)-2-ethyl-4-((1-(3-fluoro-4-(3-methyl-1H-pyrazol-1-yl)phenyl)ethyl)amino)-2,3-dihydro-1H-pyrrolo[3,4-c]pyridin-1-one]
> 1000	> 1000	> 1000	CCN1Cc2c(ccnc2N[C@@H](C)c2ccc(C(=O)c3ccccc3)c(F)c2)C1=O [Compound 60, (S)-4-((1-(4-benzoyl-3-fluorophenyl)ethyl)amino)-2-ethyl-2,3-dihydro-1H-pyrrolo[3,4-c]pyridin-1-one]
> 1000	> 1000	> 1000	CCN1Cc2c(ccnc2N[C@@H](C)c2ccc(C(=O)c3cccnc3)c(F)c2)C1=O [Compound 61, (S)-2-ethyl-4-((1-(3-fluoro-4-nicotinoylphenyl)ethyl)amino)-2,3-dihydro-1H-pyrrolo[3,4-c]pyridin-1-one]
> 1000	> 1000	> 1000	CCN1Cc2c(ccnc2N[C@@H](C)c2ccc(C(=O)NC3CCCCC3)c(Cl)c2)C1=O [Compound 62, (S)-2-chloro-N-cyclohexyl-4-(1-((2-ethyl-1-oxo-2,3-dihydro-1H-pyrrolo[3,4-c]pyridin-4-yl)amino)ethyl)benzamide]
